In patent US11708344B2, “Flavone derivatives for the treatment and prophylaxis of hepatitis B virus disease” (Hoffmann-La Roche Inc., priority 2018, dated 2023):

How the values were obtained:
[1] = system: HBeAg (surrogate marker for cccDNA) in HepDES19 cells; assay: Engineered HepDES19 primary screen assay (HBeAg ELISA); format: cell-based, HBV; settings: Hepatitis B virus, HepDES19, 120 h, read-out: IC50 (HBeAg level, HepDES19 primary screen assay), HepDES19 cells, 5 days compound incubation, HBeAg ELISA
How it was run: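 IC50 values come from 4-parameter logistic fits of HBeAg ELISA signal, the cccDNA surrogate, with CCK-8 run in parallel for viability. Compounds at half-log dilutions with 1% DMSO were applied for 5 days at 37 °C to HepDES19 cells previously cultured 8 days without Tet.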

[2] = system: HBsAg in HBV-infected PHH; assay: Cryopreserved primary human hepatocytes (PHH) HBV infection assay, extracellular HBsAg (CLIA); format: cell-based; settings: Hepatitis B virus, Hepatocyte, 216 h, read-out: HBsAg IC50, Cryopreserved PHH infected with HBV, 9 days post-compound treatment, extracellular HBsAg
How it was run: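 Cryopreserved PHH were infected with 5.8×10^6 HBV genome equivalents in medium with 4% PEG8000 and 1% DMSO. After 9 days of treatment, extracellular HBsAg was measured by CLIA, and IC50 was derived from a 4-parameter logistic fit.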

[3] = Human microsome stability assay; format: in vitro ADME; settings: human liver microsomes, 1 μM test compound, 0.5 mg/mL microsomal protein, 37° C., pH 7.4, 0-30 minutes
How it was run: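 Parent compound remaining was measured by LC-MS/MS at 0, 3, 6, 9, 15 and 30 min, following ACN quench. Reactions held 1 μM compound and 0.5 mg/mL human liver microsomal protein in pH 7.4 phosphate buffer at 37 °C, started by NADPH regeneration (1 mM NADP, 1 mM MgCl2); controls lacked NADPH.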

Compound	IC50 [1]	IC50 [2]	Clearance of Human microsome [3]
O=c1cc(-c2ccccc2OC[C@H]2C[C@H](C(=O)O)C2)oc2c(Cl)cccc12 [Example B026-B, Trans-3-[[2-(8-chloro-4-oxo-chromen-2-yl)phenoxy]methyl]cyclobutanecarboxylic acid]	0.138 µM	3.19 µM	6.15 mL/min/kg
CS(=O)(=O)NC(=O)COCCOc1cc(C(F)(F)F)ccc1-c1cc(=O)c2cccc(Cl)c2o1 [Example C120, 2-[2-[2-(8-chloro-4-oxo-chromen-2-yl)-5-(trifluoromethyl)phenoxy]ethoxy]-N-methylsulfonyl-acetamide]	1.05 µM	4.12 µM	6.15 mL/min/kg
O=C(O)COCC(O)COc1cc(Br)ccc1-c1cc(=O)c2cccc(Cl)c2o1 (stereo not drawn) [Example C113, 2-[3-[5-bromo-2-(8-chloro-4-oxo-chromen-2-yl)phenoxy]-2-hydroxy-propoxy]acetic acid]	1.28 µM	8.89 µM	6.15 mL/min/kg
O=c1cc(-c2ccc(F)cc2OCCO[C@H]2C[C@H](C(=O)O)C2)oc2c(Cl)cccc12 [Example C034-B, Trans-3-[2-[2-(8-chloro-4-oxo-chromen-2-yl)-5-fluoro-phenoxy]ethoxy]cyclobutanecarboxylic acid]	1.81 µM	9.11 µM	6.75 mL/min/kg
COc1cc(-c2cc(=O)c3cccc(Cl)c3o2)c(OCCC(=O)O)cc1Cl [Example A008, 3-[5-chloro-2-(8-chloro-4-oxo-chromen-2-yl)-4-methoxy-phenoxy]propanoic acid]	2.26 µM	0.948 µM	6.15 mL/min/kg
Cc1ccc(-c2cc(=O)c3cccc(Cl)c3o2)c(O[C@H]2C[C@@H](C(=O)NS(=O)(=O)C3CC3)C2)c1 [Example B052-A, Cis-3-[2-(8-chloro-4-oxo-chromen-2-yl)-5-methyl-phenoxy]-N-cyclopropylsulfonyl-cyclobutanecarboxamide]	10.7 µM	8.48 µM	6.15 mL/min/kg
CCOc1cc(OCCO[C@H]2C[C@@H](C(=O)O)C2)c(-c2cc(=O)c3cccc(Cl)c3o2)cc1OC [Example C078, Cis-3-[2-[2-(8-chloro-4-oxo-chromen-2-yl)-5-ethoxy-4-methoxy-phenoxy]ethoxy]cyclobutanecarboxylic acid]	15 µM	6.32 µM	6.15 mL/min/kg
Cc1ccc(S(=O)(=O)N[C@@H](COc2cc(C(F)(F)F)ccc2-c2cc(=O)c3cccc(Cl)c3o2)C(=O)O)cc1 [Example A097, (2S)-3-[2-(8-chloro-4-oxo-chromen-2-yl)-5-(trifluoromethyl)phenoxy]-2-(p-tolylsulfonylamino)propanoic acid]	0.983 µM	4.03 µM	8.78 mL/min/kg
CS(=O)(=O)NC(=O)[C@H]1C[C@@H](OCCOc2cc(Br)ccc2-c2cc(=O)c3cccc(Cl)c3o2)C1 [Example C122, Cis-3-[2-[5-bromo-2-(8-chloro-4-oxo-chromen-2-yl)phenoxy]ethoxy]-N-methylsulfonyl-cyclobutanecarboxamide]	1.05 µM	4.81 µM	7.32 mL/min/kg
O=C(O)[C@H]1CCN(C(=O)COc2cc(C(F)(F)F)ccc2-c2cc(=O)c3cccc(Cl)c3o2)C1 [Example A083, (3S)-1-[2-[2-(8-chloro-4-oxo-chromen-2-yl)-5-(trifluoromethyl)phenoxy]acetyl]pyrrolidine-3-carboxylic acid]	5.57 µM	9.74 µM	6.15 mL/min/kg
O=C(CCOc1cc(C(F)(F)F)ccc1-c1cc(=O)c2cccc(Cl)c2o1)NS(=O)(=O)C1CC1 [Example A084, 3-[2-(8-chloro-4-oxo-chromen-2-yl)-5-(trifluoromethyl)phenoxy]-N-cyclopropylsulfonyl-propanamide]	1.45 µM	1.02 µM	7.5 mL/min/kg
COc1cc(-c2cc(=O)c3cccc(Cl)c3o2)c(OCCC(=O)O)cc1Br [Example A007, 3-[5-bromo-2-(8-chloro-4-oxo-chromen-2-yl)-4-methoxy-phenoxy]propanoic acid]	3.15 µM	2.73 µM	6.15 mL/min/kg
COc1cc(OCCO[C@H]2C[C@@H](C(=O)O)C2)c(-c2cc(=O)c3cccc(Cl)c3o2)cc1OCC1CC1 [Example C082, cis-3-[2-[2-(8-chloro-4-oxo-chromen-2-yl)-4-(cyclopropylmethoxy)-5-methoxy-phenoxy]ethoxy]cyclobutanecarboxylic acid]	3.97 µM	9.52 µM	6.15 mL/min/kg
COc1cc(-c2cc(=O)c3cccc(Cl)c3o2)c(OCCCOCC(=O)O)cc1Br [Example C013, 2-[3-[5-bromo-2-(8-chloro-4-oxo-chromen-2-yl)-4-methoxy-phenoxy]propoxy]acetic acid]	0.252 µM	9.32 µM	6.15 mL/min/kg
COc1ccc(-c2cc(=O)c3cccc(Cl)c3o2)c(O[C@H]2C[C@@H](C(=O)O)C2)c1 [Example B011-A, Cis-3-[2-(8-chloro-4-oxo-chromen-2-yl)-5-methoxy-phenoxy]cyclobutanecarboxylic acid]	0.851 µM	2.32 µM	8.35 mL/min/kg
O=c1cc(-c2cc(C(F)(F)F)c(Br)cc2O[C@H]2C[C@H](C(=O)O)C2)oc2c(Cl)cccc12 [Example B024, Trans-3-[5-bromo-2-(8-chloro-4-oxo-chromen-2-yl)-4-(trifluoromethyl)phenoxy]cyclobutanecarboxylic acid]	1.64 µM	6.84 µM	7.41 mL/min/kg
Cc1ccc(-c2cc(=O)c3cccc(Br)c3o2)c(OCCC(=O)O)c1 [Example A024, 3-[2-(8-bromo-4-oxo-chromen-2-yl)-5-methyl-phenoxy]propanoic acid]	0.57 µM	4.09 µM	6.61 mL/min/kg
Cc1ccc(-c2cc(=O)c3cccc(Br)c3o2)c(OCCCOCC(=O)O)c1 [Example C017, 2-[3-[2-(8-bromo-4-oxo-chromen-2-yl)-5-methyl-phenoxy]propoxy]acetic acid]	0.492 µM	2.94 µM	6.15 mL/min/kg
O=c1cc(-c2ccccc2OCCO[C@H]2C[C@H](C(=O)O)C2)oc2c(Cl)cc(F)cc12 [Example C036-B, Trans-3-[2-[2-(8-chloro-6-fluoro-4-oxo-chromen-2-yl)phenoxy]ethoxy]cyclobutanecarboxylic acid]	0.77 µM	5.58 µM	6.15 mL/min/kg
CC(CC(=O)O)Oc1cc(C(F)(F)F)ccc1-c1cc(=O)c2cccc(Cl)c2o1 (stereo not drawn) [Example A039, 3-[2-(8-chloro-4-oxo-chromen-2-yl)-5-(trifluoromethyl)phenoxy]butanoic acid]	0.142 µM	7.08 µM	6.37 mL/min/kg
O=C(O)CCOc1cc(C(F)(F)F)ccc1-c1cc(=O)c2cccc(Cl)c2o1 [Example A001, 3-[2-(8-chloro-4-oxo-chromen-2-yl)-5-(trifluoromethyl)phenoxy]propanoic acid]	1.64 µM	1.19 µM	10.0 mL/min/kg
O=C(O)[C@@H]1C[C@H](Oc2cc(Br)ccc2-c2cc(=O)c3cccc(Cl)c3o2)CN1S(=O)(=O)C1CC1 [Example B083, (2S,4S)-4-[5-bromo-2-(8-chloro-4-oxo-chromen-2-yl)phenoxy]-1-cyclopropylsulfonyl-pyrrolidine-2-carboxylic acid]	0.704 µM	3.24 µM	6.15 mL/min/kg
COc1cc(OCCC(=O)O)c(-c2cc(=O)c3cccc(Cl)c3o2)cc1OC [Example A010, 3-[2-(8-chloro-4-oxo-chromen-2-yl)-4,5-dimethoxy-phenoxy]propanoic acid]	1.4 µM	3 µM	6.15 mL/min/kg
O=C(O)C1CC(Oc2cc(OC(F)(F)F)ccc2-c2cc(=O)c3cccc(Cl)c3o2)C1 (stereo not drawn) [Example B005, 3-[2-(8-chloro-4-oxo-chromen-2-yl)-5-(trifluoromethoxy)phenoxy]cyclobutanecarboxylic acid]	0.219 µM	6.97 µM	6.15 mL/min/kg
Cc1cc(-c2cc(=O)c3cccc(Cl)c3o2)c(OCCC(=O)O)cc1C(F)(F)F [Example A044, 3-[2-(8-chloro-4-oxo-chromen-2-yl)-4-methyl-5-(trifluoromethyl)phenoxy]propanoic acid]	2.52 µM	1.77 µM	6.15 mL/min/kg
O=c1cc(-c2ccc(C(F)(F)F)cc2OCCO[C@H]2C[C@@H](C(=O)O)C2)oc2c(Cl)cccc12 [Example C026, Cis-3-[2-[2-(8-chloro-4-oxo-chromen-2-yl)-5-(trifluoromethyl)phenoxy]ethoxy]cyclobutanecarboxylic acid]	0.526 µM	8.95 µM	6.81 mL/min/kg
